Source: publication PMC2248166, “Quantitative peptide binding motifs for 19 human and mouse MHC class I molecules derived using positional scanning combinatorial peptide libraries” (Immunome Research, 2008)

Legend:
Format in all cases: binding
HLA A*3001 = HLA A*3001 (Homo sapiens, UniProt P04439, D140H/D185E/E176W/F33S/G80R/H175R/K168Q/R138E/R41S); assay: biochemical
H-2 K^k = H-2 K^k (Mus musculus, UniProt P04223)
HLA B*5802 = HLA B*5802 (Homo sapiens, UniProt P01889, A329T/C349S/D201E/D98Y/E176V/E187L/E204Q/E69T/G107R/I218V/I90N/K202T/L105A/N104I/N87E/Q89R/Q94S/R106L/R155S/R180L/R86G/S101N/S121W/S35A/S48A/V127L/V306I/V36M/Y140S/Y91M)
HLA B*5401 = HLA B*5401 (Homo sapiens, UniProt P01889, A329T/C349S/D138N/D201E/E176V/E187T/E204Q/E69G/I76V/K202T/L119W/R155S/R180L/S121T/S35A/S48A/V127L/V306I/V36M/Y140L)
HLA B*1503 = HLA B*1503 (Homo sapiens, UniProt P01889, A329T/A93T/A95T/C349S/D201E/D98Y/E187L/E204Q/K202T/N87E/Q94N/R155S/R180L/S121R/S35A/V306I/V36M/Y140S/Y91S); assay: biochemical
HLA B*3501 = HLA B*3501 (Homo sapiens, UniProt P01889, A329T/A93T/A95T/C349S/D201E/D98Y/E176V/E187L/E204Q/E69T/I218V/K202T/L119I/Q94N/R155S/R180L/S121R/S35A/S48A/T118I/V127L/V306I/V36M/Y140S/Y91F)
H-2 K^d = H-2 K^d (Mus musculus, UniProt P01902)
HLA B*5101 = HLA B*5101 (Homo sapiens, UniProt P01889, A329T/A93T/A95T/C349S/D138N/D201E/D98Y/E187L/E204Q/E69T/G107R/I218V/K202T/L105A/L119W/N104I/Q94N/R106L/R155S/R180L/S101N/S121T/S35A/S48A/V306I/V36M/Y195H/Y91F)
HLA A*3201 = HLA A*3201 (Homo sapiens, UniProt P04439, A270S/D101S/D185E/E176V/E277Q/F133L/G103R/G107R/G231S/H175R/I121M/I218V/I322F/K168Q/L105A/L300P/L318F/M331R/P208A/P217A/Q94H/R106L/R138Q/S129P/T104I/T323A/T345S/V100E/V321M/V358M); assay: biochemical
HLA B*5801 = HLA B*5801 (Homo sapiens, UniProt P01889, A329T/C349S/D201E/D98Y/E176V/E187L/E204Q/E69T/G107R/I218V/I90N/K202T/L105A/L119I/N104I/N87E/Q89R/Q94S/R106L/R155S/R180L/R86G/S101N/S121R/S35A/S48A/T118I/V127L/V306I/V36M/Y140S/Y91M)
H-2 D^b = H-2 D^b (Mus musculus, UniProt P01899)
H-2 D^d = H-2 D^d (Mus musculus, UniProt P01900)
HLA B*5301 = HLA B*5301 (Homo sapiens, UniProt P01889, A329T/A93T/A95T/C349S/D201E/D98Y/E176V/E187L/E204Q/E69T/G107R/I218V/K202T/L105A/L119I/N104I/Q94N/R106L/R155S/R180L/S101N/S121R/S35A/S48A/T118I/V127L/V306I/V36M/Y140S/Y91F)
HLA A*6802 = HLA A*6802 (Homo sapiens, UniProt P04439, A269V/D140Y/D185E/E176V/E277Q/E87N/F33Y/G231S/I121R/I166T/I218V/L180W/L300P/L318F/N151K/P208A/P217A/Q86R/R138H/R169H/S129P/T345S/V36M)
HLA B*0801 = HLA B*0801 (Homo sapiens, UniProt P01889, A93T/A95T/D138N/E176V/E187T/K202T/Q94N/R180D/S35A/V36M/Y33D/Y91F); assay: biochemical
HLA B*1501 = HLA B*1501 (Homo sapiens, UniProt P01889, A329T/A93T/A95T/C349S/D201E/D98Y/E187L/E204Q/E69M/E70A/K202T/N87E/Q94N/R155S/R180W/S121R/S35A/S48A/V306I/V36M/Y140S/Y91S); assay: biochemical

Sequence of H-2 K^d (P01887 21-119): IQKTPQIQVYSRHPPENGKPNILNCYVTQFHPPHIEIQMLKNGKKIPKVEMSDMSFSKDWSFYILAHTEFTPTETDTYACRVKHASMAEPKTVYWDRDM
Sequence of H-2 K^d (P01902 22-368): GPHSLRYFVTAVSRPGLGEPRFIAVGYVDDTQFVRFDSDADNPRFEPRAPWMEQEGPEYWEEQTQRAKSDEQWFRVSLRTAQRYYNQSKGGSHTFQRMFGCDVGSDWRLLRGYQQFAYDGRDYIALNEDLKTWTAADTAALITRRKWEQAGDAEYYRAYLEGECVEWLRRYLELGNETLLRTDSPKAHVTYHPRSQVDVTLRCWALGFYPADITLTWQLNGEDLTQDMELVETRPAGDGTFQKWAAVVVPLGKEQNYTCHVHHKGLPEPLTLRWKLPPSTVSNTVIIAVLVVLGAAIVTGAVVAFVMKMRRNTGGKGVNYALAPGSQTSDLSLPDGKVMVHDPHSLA
Sequence of H-2 D^b (P01887 21-119): as the sequence (P01887 21-119) above
Sequence of H-2 D^b (P01899 25-362): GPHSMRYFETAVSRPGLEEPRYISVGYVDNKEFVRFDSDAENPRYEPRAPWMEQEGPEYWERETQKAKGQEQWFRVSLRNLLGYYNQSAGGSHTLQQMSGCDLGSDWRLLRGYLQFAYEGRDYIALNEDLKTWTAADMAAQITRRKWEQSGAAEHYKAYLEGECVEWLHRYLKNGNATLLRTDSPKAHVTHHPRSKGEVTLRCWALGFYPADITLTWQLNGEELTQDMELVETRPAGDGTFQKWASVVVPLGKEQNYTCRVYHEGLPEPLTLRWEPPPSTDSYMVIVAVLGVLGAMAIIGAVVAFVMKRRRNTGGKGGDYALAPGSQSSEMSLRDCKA
Sequence of H-2 K^k (P01887 21-119): as the sequence (P01887 21-119) above
Sequence of H-2 K^k (P04223 22-369): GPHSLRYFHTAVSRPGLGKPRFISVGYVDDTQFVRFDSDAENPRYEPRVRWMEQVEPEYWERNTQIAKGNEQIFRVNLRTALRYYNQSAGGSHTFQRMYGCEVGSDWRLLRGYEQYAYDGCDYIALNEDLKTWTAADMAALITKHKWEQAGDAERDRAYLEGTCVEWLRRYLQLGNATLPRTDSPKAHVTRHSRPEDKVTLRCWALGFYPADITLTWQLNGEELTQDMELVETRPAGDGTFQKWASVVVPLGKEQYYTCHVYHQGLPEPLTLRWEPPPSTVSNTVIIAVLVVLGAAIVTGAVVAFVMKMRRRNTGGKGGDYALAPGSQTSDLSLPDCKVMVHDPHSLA
Sequence of H-2 D^d (P01900 whole entry, looked up): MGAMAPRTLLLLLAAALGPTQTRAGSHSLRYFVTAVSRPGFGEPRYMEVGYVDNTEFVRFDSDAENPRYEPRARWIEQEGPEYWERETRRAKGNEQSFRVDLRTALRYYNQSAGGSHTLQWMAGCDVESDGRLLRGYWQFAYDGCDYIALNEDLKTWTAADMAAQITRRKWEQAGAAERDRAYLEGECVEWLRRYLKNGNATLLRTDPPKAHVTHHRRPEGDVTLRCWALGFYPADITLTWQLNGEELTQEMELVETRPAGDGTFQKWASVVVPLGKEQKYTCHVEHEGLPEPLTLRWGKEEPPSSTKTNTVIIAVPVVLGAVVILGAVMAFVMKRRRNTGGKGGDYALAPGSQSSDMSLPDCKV

Sequence	Normalized average relative binding affinity(ARB) (HLA A*3001)	Normalized average relative binding affinity(ARB) (H-2 K^k)	Normalized average relative binding affinity(ARB) (HLA B*5802)	Normalized average relative binding affinity(ARB) (HLA B*5401)	Normalized average relative binding affinity(ARB) (HLA B*1503)	Normalized average relative binding affinity(ARB) (HLA B*3501)	Normalized average relative binding affinity(ARB) (H-2 K^d)	Normalized average relative binding affinity(ARB) (HLA B*5101)	Normalized average relative binding affinity(ARB) (HLA A*3201)	Normalized average relative binding affinity(ARB) (HLA B*5801)	Normalized average relative binding affinity(ARB) (H-2 D^b)	Normalized average relative binding affinity(ARB) (H-2 D^d)	Normalized average relative binding affinity(ARB) (HLA B*5301)	Normalized average relative binding affinity(ARB) (HLA A*6802)	Normalized average relative binding affinity(ARB) (HLA B*0801)	Normalized average relative binding affinity(ARB) (HLA B*1501)
XXXXXWXXX [3064.0119]	0.14	0.49	0.29	0.18	0.37	0.99	0.29	0.10	0.26	0.21	1.0	0.77	0.36	0.44	0.046	0.36
XXXXXXAXX [3064.0121]	0.12	0.12	0.032	0.45	0.0014	0.22	0.17	0.24	0.20	0.0045	0.65	0.037	0.31	0.37	0.44	0.69
XXXXXXCXX [3064.0122]	0.21	0.094	0.024	0.16	0.094	0.18	0.12	0.28	0.11	0.082	0.28	0.048	0.17	0.11	0.44	0.78
XXXXXXDXX [3064.0123]	0.014	0.030	0.022	0.28	0.051	0.12	0.051	0.15	0.026	0.066	0.66	0.053	0.049	0.37	0.072	0.10
XXXXXXEXX [3064.0124]	0.050	0.13	0.092	0.26	0.043	0.36	0.14	0.37	0.092	0.15	0.96	0.060	0.29	0.42	0.32	0.49
XXXXXXFXX [3064.0125]	0.18	1.0	0.084	0.17	0.077	0.32	0.088	0.43	0.44	0.018	0.72	1.0	0.10	0.46	0.40	0.34
XXXXXXGXX [3064.0126]	0.044	0.34	0.024	0.073	0.12	0.12	0.28	0.33	0.051	0.031	0.45	0.031	0.058	0.071	0.17	0.52
XXXXXXHXX [3064.0127]	0.082	0.26	0.089	0.27	0.18	0.15	0.33	0.27	0.33	0.18	0.062	0.075	0.070	0.49	1.0	0.33
